Data as given in PMC9700728 (Nature Communications, 2022).

How the values were obtained:
[1] = target: T1, rThC (recombinant thrombocorticin, ThC) (unclassified Corticium (in: sponges), UniProt C0HM62); test: isothermal titration calorimetry; assay type: binding; details: 5 mM CaCl2, 20 mM HEPES-NaOH pH 8.0, 200 mM NaCl, 25 °C; Ca2+-mediated site at dimer interface
T1 construct: N-terminal 6xHis-tag (modified pET28), expressed in E. coli BL21(DE3); 131 residues, 14 kDa; homodimer, sugar site at protomer interface
T1 sequence (C0HM62 1-131): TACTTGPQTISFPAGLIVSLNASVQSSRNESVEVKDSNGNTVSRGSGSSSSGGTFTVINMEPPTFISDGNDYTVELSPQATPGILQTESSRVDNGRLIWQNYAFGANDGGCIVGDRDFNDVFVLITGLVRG

BC2L-C-CTD = target: T2, BC2L-C-CTD (Burkholderia cenocepacia, UniProt B4EH86); test: isothermal titration calorimetry; assay type: binding; details: 20 mM HEPES-NaOH pH 8.0, 200 mM NaCl, 25 °C
T2 construct: gene BCAM0185; C-terminal domain of BC2L-C, N-terminal 6xHis-tag (modified pET28), expressed in E. coli BL21(DE3)
From the text: isothermal titration calorimetry on BC2L-C-CTD | BC2L-C-CTD bound only to mannose

[2] = target: T1, rThC (recombinant thrombocorticin, ThC); test: inhibition of rThC-induced Ba/F3-HuMpl cell proliferation; assay type: cell-based; details: rThC 1 μg/mL, RPMI-1640 with 10% FBS, 37 °C, 4 days; competes with MPL glycan
[3] = target: human thrombopoietin receptor MPL on Ba/F3-HuMpl cells (human) (UniProt P40238)
[4] = target: T3, human thrombopoietin receptor MPL on Ba/F3-HuMpl cells (human, UniProt P40238 26-635); test: cell-based or functional assay
T3 sequence (looked up): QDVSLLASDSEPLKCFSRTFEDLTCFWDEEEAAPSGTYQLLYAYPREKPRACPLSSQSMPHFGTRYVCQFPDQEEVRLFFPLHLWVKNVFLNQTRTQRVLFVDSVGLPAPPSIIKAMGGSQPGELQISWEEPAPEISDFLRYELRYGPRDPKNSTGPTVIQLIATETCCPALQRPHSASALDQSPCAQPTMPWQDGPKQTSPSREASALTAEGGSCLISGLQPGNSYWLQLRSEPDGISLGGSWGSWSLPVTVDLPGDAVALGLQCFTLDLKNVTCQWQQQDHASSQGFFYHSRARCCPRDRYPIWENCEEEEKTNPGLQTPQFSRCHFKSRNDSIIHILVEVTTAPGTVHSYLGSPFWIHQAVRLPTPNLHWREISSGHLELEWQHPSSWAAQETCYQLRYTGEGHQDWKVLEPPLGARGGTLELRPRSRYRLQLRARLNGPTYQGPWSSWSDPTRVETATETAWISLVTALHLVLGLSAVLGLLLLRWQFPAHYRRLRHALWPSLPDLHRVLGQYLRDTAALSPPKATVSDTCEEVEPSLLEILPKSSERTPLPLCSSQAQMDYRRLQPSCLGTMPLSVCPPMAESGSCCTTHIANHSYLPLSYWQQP

Question: What does the source list for OC[C@H]1OC(O)[C@@H](O)[C@@H](O)[C@@H]1O (stereo partly drawn) [D-mannose]?
Answer: KD [1]: 66.2 × 10 µM; Kd (BC2L-C-CTD): 17.7 ± 0.32 µM; IC50 [2]: 6460 µM

Question: With C[C@@H]1OC(O)[C@@H](O)[C@H](O)[C@@H]1O (stereo partly drawn) [L-fucose] as the molecule, how does the Kd [1] read?
Answer: 4.72 µM

Question: What about the IC50 [2] of the same molecule?
Answer: 22.8 µM

Question: For “PA-IIL (from UniProt Q9HYN5 1-115) (natural protein)”, which proliferation of Ba/F3-HuMpl cells, EC50 [3] is on record?
Answer: 18.1 µg/mL

B1: N-terminal His-tagged recombinant thrombocorticin (wild type) (natural protein, UniProt C0HM62 1-131, looked up)
chain: T1 sequence (C0HM62 1-131)
Question: Which “proliferation of Ba/F3-HuMpl cells, EC50” value [4] does the source give for B1 here?
Answer: 0.26 µg/mL
